Assay results as given in patent US20250186656A1, “SHAPE MORPHING HYDROGEL ACTUATORS AND CONSTRUCTS” (Case Western Reserve University, priority 2022, published 2025).

Tests used:
cells = assay: Cytocompatibility of UV absorber HMAP (cell viability); assay type: cell-based; settings: all the tested concentrations
[1] = tested on: NIH 3T3 cell-laden bilayer constructs (cell-generated forces, actin polymerization); assay: Cytochalasin D treatment of cell-laden bilayer constructs; assay type: cell-based
Text: To accomplish bilayer printing, two syringes were loaded into the 3D printer: the first contained only reconstituted OMA microgels (cell-free bioink); the second contained the cell-laden bioink. For bilayer rectangles, a 25 mm×25 mm×0.2 mm square was printed with the cell-free bioink. Three cell-laden rectangles measuring 18 mm×4 mm×0.6 mm were then printed directly on top of the cell-free square, spaced 4 mm apart. After crosslinking constructs with UV light, the cell-free layer was cut with a razor blade to match the geometry of the cell-laden rectangles, forming bilayer rectangles. Dead controls were generated by incubating cells in acetone for 30 minutes before forming the cell-laden bioink.
To further illustrate the role of cell-generated forces in the observed spatiotemporal changes, the effect of Cytochalasin D, a known inhibitor of actin polymerization, was studied. Cytochalasin D was weighed and dissolved in sterile dimethyl sulfoxide (DMSO) at a concentration of 5 mM and stored at 4° C. Bilayer rectangles were printed and cultured in culture media supplemented with 0.1% v/v Cytochalasin D, resulting in a final Cytochalasin D concentration of 5 μM. Half of the media was replaced every day, with fresh Cytochalasin D added at 0.1% v/v each time. To ensure that any change in behavior is being caused by Cytochalasin D and not DMSO, four bilayer rectangles were cultured in culture media with 0.1% v/v DMSO. These media conditions were also compared to bilayer rectangles cultured in normal culture media.
After culture duration was complete, samples were fixed overnight in 10% neutral buffered formalin at room temperature. Samples were then dehydrated through one-hour incubations in 70% ethanol, 95% ethanol, 100% ethanol, 1:1 mixture of ethanol and xylenes, and two separate 100% xylenes. Samples were then submerged in molten paraffin for at least 24 hours before being embedded in paraffin blocks. 5-μm sections were obtained from blocks using a microtome and mounted on microscope slides. Hematoxilyn and eosin (H&E) sections were stained with hematoxilyn for 2 minutes followed by counterstaining with eosin for 30 seconds. Safrananin O and fast green sections were stained with 0.1% Safranin O for 5 minutes followed by counterstaining with 0.05% fast green for 1 minute. Alcian blue and nuclear fast red sections were stained with alcian blue ([…]) for 30 minutes followed by counterstaining with nuclear fast red for 5 minutes.
Dissection microscope images were used to measure bending angle as described in FIG. 72. Briefly, a circle with crosshairs was superimposed on each image using Microsoft Powerpoint. […] Using this method, a construct that has bent into a half circle is measured as 180 degrees, while a construct whose ends are touching is measured as 360 degrees. […]

Compound | cell viability (cells) | macroscopic shape change of bilayer constructs ([1]; 5 μM in growth medium, over duration of culture (14 days)) | cell death (live/dead) ([1]; 5 μM, day 14) | cell morphology (live/dead images) ([1]; 5 μM, day 14) | fibrous border formation (H&E histology) ([1]; 5 μM, day 14)
CC(=O)c1ccc(O)c(C)c1 [HMAP, 4′-hydroxy-3′-methylacetophenone] | > 90% | – | – | – | –
C=C1[C@@H](C)[C@H]2[C@H](Cc3ccccc3)NC(=O)[C@]23[C@H](OC(C)=O)/C=C/[C@@](C)(O)C(=O)[C@@H](C)C/C=C/[C@H]3[C@@H]1O [Cytochalasin D] | – | no macroscopic changes in shape | no sign of cell death | more rounded | unable to form this fibrous border
